The values below come from patent publication US10717735B2, “Solid forms of a compound for modulating kinases” (Plexxikon Inc., priority 2017, dated 2020).

Data set [1] in a line: Dynamic vapor sorption (DVS). In kind it is physicochemical. As to conditions: from about 5% to about 95% RH. The protocol:
Dynamic Vapor […] DVS data were collected on a VTI SGA-100 Vapor Sorption Analyzer. NaCl and PVP were used as calibration standards. Samples were not dried prior to analysis. Adsorption and desorption data were collected over a range from 5 to 95% RH at 10% RH increments under a nitrogen purge. The equilibrium criterion used for analysis was less than 0.0100% weight change in 5 minutes with a maximum equilibration time of 3 hours. Data were not corrected for the initial moisture content of the samples.

The nature of data set [2]: Solubility estimates by solvent aliquot addition, visual observation. The class given is physicochemical. Here is the method: Aliquots of various solvents were added to measured amounts of Compound I or forms of Compound I as described herein with agitation (typically sonication) at ambient temperature until complete dissolution was achieved, as judged by visual observation. Solubilities were calculated based on the total solvent used to give a solution; actual solubilities may be greater because of the volume of solvent portions utilized or a slow rate of dissolution. […] If dissolution occurred at the first aliquot the value was reported as “>”.

The subject of data set [3] is Eμ-TCL1 leukemic splenocytes. The data set is described as follows: Survival of mice engrafted with Eμ-TCL1 leukemic splenocytes, comparison with Ibrutinib. As to conditions: 20 mg/kg, qd; for median overall survival (OS): oral gavage at leukemia onset, vehicle 21 days (FIG. 24H). In kind it is in vivo, C57BL/6 mice. The protocol: FIG. 24H is a Kaplan-Meier curve showing overall survival for C57BL/6 mice engrafted with Eμ-TCL1 leukemic splenocytes treated with Ibrutinib or Compound I Free Acid Amorphous (20 mg/kg, qd, oral gavage) at leukemia onset, where the median OS is: 41 days (Compound I Free Acid Amorphous, n=7), 32 days (Ibrutinib, n=8) and 21 days (vehicle, n=7). […] Survival comparisons for FIG. 24H were made with the log-rank test, and p-values were adjusted for multiple comparisons.
FIG. 24H is a Kaplan-Meier curve showing overall survival (OS) for C57BL/6 mice engrafted with Eμ-TCL1 leukemic splenocytes treated with Ibrutinib or Compound I Free Acid Amorphous (Cmpd. I FAA) (20 mg/kg, qd, oral gavage) at leukemia onset. Survival comparisons for FIG. 24H were made with the log-rank test, and p-values were adjusted for multiple comparisons.
Ibrutinib is currently the standard of care (first-in-line) treatment.

The subject of data set [4] is uveal melanoma (UM). Particulars: mouse xenograft models of uveal melanoma; cited from earlier work.
Data set [5] has as its system pre-clinical models of CLL. As to conditions: in vitro and in vivo; cited from earlier work.
The test system of data set [6] is adaptive transfer model of Eμ-TCL1. Description: Adaptive transfer model of Eμ-TCL1, treatment at leukemia onset. The class given is in vivo, wild type mice. Particulars: 20 mg/kg, qd. Here is the method: (§1) FIG. 24 panels D-G: using an adaptive transfer model of Eμ-TCL1, recipient wild type mice were randomized to receive vehicle (n=12) or Compound I Free Acid Amorphous (20 mg/kg, qd, oral gavage, n=10) at leukemia onset and disease progression was measured by flow cytometry as % CD19/CD5/CD45 positive PBL. Treatment was ended at 150 days. FIG. 24D is a Kaplan-Meier curve showing overall survival (OS) (p<0.0001), with the median OS for Compound I Free Acid Amorphous and the vehicle being 93 days and 34 days, respectively. Survival comparisons for FIG. 24D were made with the log-rank test, and p-values were adjusted for multiple comparisons. Compound I Free Acid Amorphous decreased the percentage of circulating leukemic PBL (FIG. 24E), and reduced spleen mass (FIG. 24F).
as §1, with “Using” for “FIG. 24 panels D-G: using”

For data set [7], the system named is Eμ-TCL1 with advanced leukemia. The data set is described as follows: Pharmacodynamic evaluation of antitumor effects in Eμ-TCL1 with advanced leukemia. The class given is in vivo, Mice. Particulars: 20 mg/kg, qd, oral gavage, 8 days. Here is the method:
FIG. 24 panels A-C illustrate data related to the pharmacodynamic evaluation of antitumor effects of Compound I Free Acid Amorphous in Eμ-TCL1 with advanced leukemia. Mice were stratified according to leukemic peripheral blood lymphocytes (PBLs) and spleen palpation score to receive either vehicle or Compound I Free Acid Amorphous (20 mg/kg, qd, oral gavage) for 8 days. […] FIG. 24C is a representative immunoblot analysis of relative protein levels of cMYC, P21, BTK, IKZF1, IKZF3 and TCL1A protein at the end of the 8 day study. […] Mice were stratified according to leukemic peripheral blood lymphocytes (PBLs) and spleen palpation score to receive either vehicle or Compound I Free Acid Amorphous (20 mg/kg, qd, oral gavage) for 8 days. […] FIG. 24C is a representative immunoblot analysis of relative protein levels of cMYC, P21, BTK, IKZF1, IKZF3 and TCL1A protein at the end of the 8 day study.

[8] abbreviates: methanol (MeOH), ambient temperature.

≈ marks a conversion by molar mass, not a printed value. Read-outs that look alike come from different tables or passages of the source.

The term solubility denotes the concentration that dissolves in the medium under given conditions. With `Cc1noc(C)c1-c1cnc2c(-c3ccc(C(=O)O)cc3)cn([C@@H](C)c3ccccn3)c2c1` [Compound I Form A, 4-(6-(3,5-dimethylisoxazol-4-yl)-1-[(1S)-1-(2-pyridyl)ethyl]pyrrolo[3,2-b]pyridin-3-yl)benzoic acid], the DVS weight gain entry in data set [1] is listed as “about 0.8%”. Further, the “solubility” value in data set [2] (acetone, ambient temperature) was 36000 µg/mL (≈ 82.1 mM); in data set [2] (acetonitrile, organic solvent or mixture, thermodynamic from solid, acetonitrile (ACN), ambient temperature, read-out: Solubility), 6000 µg/mL (≈ 13.7 mM); in data set [2] (dichloromethane, organic solvent or mixture, thermodynamic from solid, dichloromethane (DCM), ambient temperature, read-out: Solubility) it was 12000 µg/mL (≈ 27.4 mM); in data set [2] (setting [8]), 6000 µg/mL (≈ 13.7 mM); in data set [2] (toluene, organic solvent or mixture, thermodynamic from solid, toluene, ambient temperature, read-out: Solubility), < 4000 µg/mL.

For the compound `Cc1noc(C)c1-c1cnc2c(-c3ccc(C(=O)O)cc3)cn([C@@H](C)c3ccccn3)c2c1` [Compound I Form D, 4-(6-(3,5-dimethylisoxazol-4-yl)-1-[(1S)-1-(2-pyridyl)ethyl]pyrrolo[3,2-b]pyridin-3-yl)benzoic acid], the “solubility” value in data set [2] (acetone, ambient temperature) was 4000 µg/mL (≈ 9.12 mM); in data set [2] (acetonitrile (ACN), ambient temperature), <3000 µg/mL; in data set [2] (chloroform, organic solvent or mixture, thermodynamic from solid, chloroform, ambient temperature, read-out: Solubility) it was > 59000 µg/mL; in data set [2] (dichloromethane (DCM), ambient temperature), 24000 µg/mL (≈ 54.7 mM); in data set [2] (diethyl ether, organic solvent or mixture, thermodynamic from solid, diethyl ether, ambient temperature, read-out: Solubility), < 2000 µg/mL; in data set [2] (dioxane, organic solvent or mixture, thermodynamic from solid, dioxane, ambient temperature, read-out: Solubility) it was < 2000 µg/mL. For the same compound, the solubility in data set [2] (ethanol, organic solvent or mixture, thermodynamic from solid, ethanol (EtOH), ambient temperature, read-out: Solubility) was 9000 µg/mL (≈ 20.5 mM); in data set [2] (ethyl acetate, organic solvent or mixture, thermodynamic from solid, ethyl acetate (EtOAc), ambient temperature, read-out: Solubility), < 2000 µg/mL; in data set [2] (isopropyl alcohol, organic solvent or mixture, thermodynamic from solid, isopropyl alcohol (IPA), ambient temperature, read-out: Solubility), 4000 µg/mL (≈ 9.12 mM); in data set [2] (setting [8]), >72000 µg/mL; in data set [2] (tetrahydrofuran, organic solvent or mixture, thermodynamic from solid, tetrahydrofuran (THF), ambient temperature, read-out: Solubility) it was 4000 µg/mL (≈ 9.12 mM); in data set [2] (toluene, ambient temperature), <2000 µg/mL. Also, the solubility in data set [2] (water, thermodynamic from solid, water, ambient temperature, read-out: Solubility) is 23000 µg/mL (≈ 52.5 mM).

In the case of `C=CC(=O)N1CCC[C@@H](n2nc(-c3ccc(Oc4ccccc4)cc3)c3c(N)ncnc32)C1` [Ibrutinib, reference compound], the “median overall survival (OS)” value in data set [3] was found to be 32 days.

Turning to `Cc1noc(C)c1-c1cnc2c(-c3ccc(C(=O)O)cc3)cn([C@@H](C)c3ccccn3)c2c1` [Compound I, 4-(6-(3,5-dimethylisoxazol-4-yl)-1-[(1S)-1-(2-pyridyl)ethyl]pyrrolo[3,2-b]pyridin-3-yl) benzoic acid], the solubility in data set [2] (acetone, organic solvent or mixture, thermodynamic from solid, Acetone, read-out: Solubility) is 3000 µg/mL (≈ 6.84 mM); in data set [2] (acetonitrile, organic solvent or mixture, thermodynamic from solid, Acetonitrile, read-out: Solubility), < 1000 µg/mL; in data set [2] (dichloromethane, organic solvent or mixture, thermodynamic from solid, Dichloromethane, read-out: Solubility) it was < 1000 µg/mL; in data set [2] (dimethyl sulfoxide, organic solvent or mixture, thermodynamic from solid, Dimethyl sulfoxide, read-out: Solubility), > 93000 µg/mL; in data set [2] (ethanol, organic solvent or mixture, thermodynamic from solid, Ethanol, read-out: Solubility) it was < 1000 µg/mL; in data set [2] (ethyl acetate, organic solvent or mixture, thermodynamic from solid, Ethyl acetate, read-out: Solubility), < 1000 µg/mL. Further, the solubility in data set [2] (isopropanol, organic solvent or mixture, thermodynamic from solid, Isopropanol, read-out: Solubility) was < 1000 µg/mL; in data set [2] (methanol, organic solvent or mixture, thermodynamic from solid, Methanol, read-out: Solubility), 1000 µg/mL (≈ 2.28 mM); in data set [2] (tetrahydrofuran, organic solvent or mixture, thermodynamic from solid, Tetrahydrofuran, read-out: Solubility) it was 19000 µg/mL (≈ 43.3 mM); in data set [2] (water, thermodynamic from solid, Water, read-out: Solubility), < 1000 µg/mL. Besides, the tumor growth entry in data set [4] was “significantly inhibited tumor growth”. Moreover, in data set [5], the “efficacy relative to B-cell receptor (BCR) signaling agents” value was “emulatesor exceeds the efficacy of B-cell receptor (BCR) signaling agents”.

In the case of `Cc1noc(C)c1-c1cnc2c(-c3ccc(C(=O)O)cc3)cn([C@@H](C)c3ccccn3)c2c1` [Compound I Free Acid Amorphous, 4-(6-(3,5-dimethylisoxazol-4-yl)-1-[(1S)-1-(2-pyridyl)ethyl]pyrrolo[3,2-b]pyridin-3-yl)benzoic acid], in data set [6] (oral gavage (FIG. 24F)), the spleen mass result was “reduced”. Also, the “HE staining of spleen, lung and blood: lymphocytes” value in data set [6] (oral gavage (FIG. 24G)) was “depleted of lymphocytes”. For the same compound, in data set [6] (oral gavage (FIG. 24G)), the “Ki67 staining of spleen, lung and blood” value is on record as “mostly absent”. For the same compound, the “median overall survival (OS)” value in data set [6] (oral gavage at leukemia onset, vehicle 34 days, p<0.0001 (FIG. 24D)) is on record as 93 days; in data set [3], 41 days. Also, in data set [6] (oral gavage, % CD19/CD5/CD45 positive PBL by flow cytometry (FIG. 24E)), the “percentage of circulating leukemic PBL” value is recorded as “decreased”. In data set [3] (oral gavage, log-rank test), the “survival compared with vehicle (p=0.024) and Ibrutinib (p=0.049)” value is listed as “significantly increased survival”. Further, the “leukemic cells in systemic circulation” value in data set [7] (vs vehicle (FIG. 24A)) is on record as “reduced”. Besides, in data set [7] (vs vehicle (FIG. 24B)), the “leukemic cells locally in spleen” value was “reduced”.
